The values below come from patent US20240383846A1, “MERCAPTOACETOPHENONE AMINOHYDRAZONES, THEIR SALTS AND USES THEREOF” (priority 2021, published 2024).

For orientation: MIC means the least concentration at which growth counts as inhibited.

≈ marks a conversion by molar mass, not a printed value. Like-named read-outs stand apart in the source and are kept apart here.

Assay [1] concerns MRSA USA300. Description: MIC by broth microdilution (CLSI) against MRSA USA300. The note with it: for MIC: Staphylococcus aureus, read-out: MRSA USA300 MIC. Type of assay: cell-based, Staphylococcus aureus. From the text: (§1) Table 1 summarizes the antibacterial activity of certain compounds, according to the present invention, as calculated by minimum inhibitory concentration (MIC) values against one multidrug resistant gram-positive strain (MRSA USA300), and one multidrug resistant gram-negative (Acinetobacter baumannii AB5075). The later bacterial strain is listed at the top of the WHO's critical priority list for antibiotic development. Preferred compounds, according to the present invention are example compounds of formulas 72, 74, and 75, and, in particular, example compound of formula 75.
(§2) The minimum inhibitory concentration (MIC) of tested compounds and control antibiotics was determined using the broth microdilution method according to the guidelines outlined by the Clinical and Laboratory Standards Institute (CLSI, Methods for Dilution Antimicrobial Susceptibility Tests for Bacteria That Grow Aerobically; Approved Standard. January 2012; Vol. Ninth Edition M07-A9. 32 No. 2.). Bacterial strains were grown aerobically overnight on tryptone soy agar plates at 37° C. Afterwards, a bacterial solution equivalent to 0.5 McFarland standard was prepared and diluted in cation-adjusted Mueller-Hinton broth (CAMHB) to achieve a bacterial concentration of about 5×10^5 CFU/mL and seeded in 96-well plates. Compounds and control drugs were added in the first row of the 96-well plates and serially diluted along the plates. Plates were then, incubated aerobically at 37° C. for 18-20 hours.

For another assay, the system named is A. baumannii AB5075. Kind of assay: MIC by broth microdilution (CLSI) against A. baumannii AB5075. Type of assay: cell-based, Acinetobacter baumannii. The note with it: for MIC: Acinetobacter baumannii.
Excerpt: as §1, §2
A general note: Dilution methods test growth across graded concentrations, often in twofold steps.

Assay [2] relates to MRSA USA300. Description: Multi-step resistance experiment, 14 consecutive passages. Format: cell-based, Staphylococcus aureus. The procedure: A multi-step resistance experiment was conducted, with example compound of formula 75. Initially, the MICs of heptyl compound and rifampicin, as the control antibiotic, were determined against MRSA USA300 using the broth microdilution method. Then, the strain was subcultured for fourteen consecutive passages over two weeks, with increasing concentrations of the tested agents, to detect the shift in the MIC, if any.
Multi-step resistance testing was conducted as reported earlier (PLOS One, 12 (2017) e0182821). A broth microdilution assay was used to determine the MIC for the MRSA strain USA300 after being exposed for 14 consecutive passages to either the example compound of formula 75, or rifampicin, as a control antibiotic. Briefly, different concentrations of TBT4 and rifampicin were prepared in 10 mL Mueller-Hinton (MH) broth (0.125 to 32 μg/ml and 0.003 to 1024 μg/mL, respectively) and they were inoculated with 10 μL of an overnight culture of S. aureus strain USA300 and then incubated at 37° C., with shaking at 180 rpm, for 24 h. […] Resistance was classified as a greater than four-fold increase in the initial MIC (Antimicrob. Agents Chemother., 55 (2011) 1177-1181).

The subject of another assay is MRSA strain USA300. Kind of assay: Murine skin infection model, subcutaneous MRSA infection, topical treatment. Type of assay: in vivo. The note with it: mice, twice daily for four days; for bacterial counts from skin lesions compared with PJ group / appearance of skin lesions (visual comparison): 2% topical; for bacterial counts from skin lesions compared with PJ group: *p≤0.05; for appearance of skin lesions (visual comparison): vs petroleum jelly vehicle. The procedure:
The effectiveness of certain compounds, according to the present invention, was assessed using a murine skin infection model, conducted as previously described (Tseng, C. W. et. al. Subcutaneous infection of methicillin resistant Staphylococcus aureus (MRSA), J. Vis. Exp., (2011) 2528). The effect of example compound of formula 75 was assessed against skin infection caused by methicillin-resistant Staphylococcus aureus (MRSA), the main causative agent of diabetic foot ulcer. Within 72 hours post-subcutaneous infection with MRSA strain USA300, the backs of the mice started showing evident lesions. At this point, treatment regimen started for the three groups of mice, for four days, twice daily, with petroleum jelly (PJ) or petroleum jelly with 2% example compound of formula 75 or 2% fusidic acid ointment (FA). […] The mice with plain vehicle (PJ) applied throughout the experiment had ulcerated lesions and visible skin damage with demarcated red prominent edges, as shown in FIG. 2A.

[3] abbreviates: broth microdilution, CAMHB, 37° C., 18-20 hours.
[4] abbreviates: AB5075, broth microdilution, CAMHB, 37° C., 18-20 hours, read-out: A. baumannii AB5075 MIC.
[5] abbreviates: end of the experiment (fourteen passages).
Where [6] appears, read: comparison of MIC values of Table 1.

In the case of `C/C(=N\NC(=N)N)c1ccc(SCc2ccccc2)cc1` [Example compound of formula 83], the minimal inhibitory concentration (MIC) in the assay on MRSA USA300 [1] (setting [3]) was determined as 4 µg/mL; with A. baumannii AB5075 (setting [4]), 16 µg/mL.
In the case of Gentamycin [reference compound], in the assay with A. baumannii AB5075 (setting [3]), the “A. baumannii AB5075 MIC” value is 1 µg/mL.
As to `CCCCCCCCSc1ccc(/C(C)=N/NC(=N)N)cc1` [Example compound of formula 72], the MIC in the assay with MRSA USA300 [1] (setting [3]) is 1 µg/mL; in the assay on A. baumannii AB5075 (setting [4]), 8 µg/mL.
In the case of `C/C(=N\NC(=N)N)c1ccc(SCC2CCCCC2)cc1` [Example compound of formula 82], in the assay on MRSA USA300 [1] (setting [3]), the “MRSA USA300 MIC” value is given as “No inhibition”. The “A. baumannii AB5075 MIC” value with A. baumannii AB5075 (setting [3]) is reported as “No inhibition”.
For `CCCSc1ccc(/C(C)=N/NC(=N)N)cc1` [Example compound of formula 68], the “MRSA USA300 MIC” value in the assay on MRSA USA300 [1] (setting [3]) was “No inhibition”. For the same compound, the “A. baumannii AB5075 MIC” value in the assay with A. baumannii AB5075 (setting [3]) is “No inhibition”.
Turning to `CCC(CC)CSc1ccc(/C(C)=N/NC(=N)N)cc1` [Example compound of formula 78], the “MRSA USA300 MIC” value in the assay on MRSA USA300 [1] (setting [3]) is reported as “No inhibition”. Also, in the assay with A. baumannii AB5075 (setting [3]), the “A. baumannii AB5075 MIC” value is on record as “No inhibition”.
With `C/C(=N\NC(=N)N)c1ccc(SCCc2ccccc2)cc1` [Example compound of formula 84], the MIC with MRSA USA300 [1] (setting [3]) is 2 µg/mL; in the assay on A. baumannii AB5075 (setting [4]), 8 µg/mL.
Regarding `C/C(=N\NC(=N)N)c1ccc(SC2CCCCC2)cc1` [Example compound of formula 80], the MIC amounted to 4 µg/mL with MRSA USA300 [1] (setting [3]) and 8 µg/mL in the assay on A. baumannii AB5075 (setting [4]).
Turning to `CCCCCCCCCSc1ccc(/C(C)=N/NC(=N)N)cc1` [Example compound of formula 73], the MIC amounted to 2 µg/mL with MRSA USA300 [1] (setting [3]) and 16 µg/mL in the assay on A. baumannii AB5075 (setting [4]).
On the same counts, the results for `CCCCCSc1ccc(/C(C)=N/NC(=N)N)cc1` [Example compound of formula 71] are 8 µg/mL and 16 µg/mL.
Regarding `C/C(=N\NC(=N)N)c1ccc(SCC2CCC2)cc1` [Example compound of formula 81], the MIC with MRSA USA300 [1] (setting [3]) came out at 8 µg/mL; in the assay on A. baumannii AB5075 (setting [4]) it was 16 µg/mL.
On the same counts, the results for `C/C(=N\NC(=N)N)c1ccc(SC2CCCC2)cc1` [Example compound of formula 79] are 8 µg/mL and 16 µg/mL.
In the case of `CO[C@H]1/C=C/O[C@@]2(C)Oc3c(C)c(O)c4c(O)c(c(/C=N/N5CCN(C)CC5)c(O)c4c3C2=O)NC(=O)/C(C)=C\C=C\[C@H](C)[C@H](O)[C@@H](C)[C@@H](O)[C@@H](C)[C@H](OC(C)=O)[C@@H]1C` [rifampicin, reference compound], the “increase in MIC against MRSA USA300” value in the assay with MRSA USA300 [2] (eighth passage) is reported as 7 fold; in the assay with MRSA USA300 [2] (setting [5]) it was 13 fold.
As to `CCCCCCCSc1ccc(/C(C)=N/NC(=N)N)cc1` [Example compound of formula 75, 2-(1-(4-(Heptylthio)phenyl)ethylidene)hydrazine-1-carboximidamide], the “decrease in bacterial loads recovered from skin lesions” value in the assay on MRSA strain USA300 (2% in petroleum jelly, topical) is roughly 1 log cycle. Further, the “reduction in bacterial loads recovered from skin lesions” value with MRSA strain USA300 (2% in petroleum jelly, topical) came out at 90%. For the same compound, in the assay on MRSA strain USA300, the “bacterial counts from skin lesions compared with PJ group” value is “significantly lower than the counts obtained from the PJ group”. The “appearance of skin lesions (visual comparison)” value in the assay on MRSA strain USA300 is “showed signs of lesion healing and better recovery”. Moreover, the MIC with MRSA USA300 [1] (setting [3]) worked out at 0.5 µg/mL; in the assay on A. baumannii AB5075 (setting [4]), 1 µg/mL. Also, the “increase in MIC against MRSA USA300” value in the assay with MRSA USA300 [2] (eighth passage) is 2 fold; with MRSA USA300 [2] (setting [5]), “remained stable till the end of the experiment”; in the assay with MRSA USA300 [2] (on the fifth passage), “one-fold”.
For the compound `C/C(=N\NC(=N)N)c1ccc(SCCC(C)C)cc1` [Example compound of formula 77], the figures for the MIC in the assay with MRSA USA300 [1] (setting [3]) and in the assay with A. baumannii AB5075 (setting [4]) were 4 µg/mL and 8 µg/mL, respectively.
On the same counts, the results for `C/C(=N\NC(=N)N)c1ccc(SCC(C)C)cc1` [Example compound of formula 76] are 8 µg/mL and 16 µg/mL.
As for `CN[C@H](CC(C)C)C(=O)N[C@H]1C(=O)N[C@@H](CC(N)=O)C(=O)N[C@H]2C(=O)N[C@H]3C(=O)N[C@H](C(=O)N[C@H](C(=O)O)c4cc(O)cc(O)c4-c4cc3ccc4O)[C@H](O)c3ccc(c(Cl)c3)Oc3cc2cc(c3O[C@@H]2O[C@H](CO)[C@@H](O)[C@H](O)[C@H]2O[C@H]2C[C@](C)(N)[C@H](O)[C@H](C)O2)Oc2ccc(cc2Cl)[C@H]1O` [Vancomycin, reference compound], the MIC is 1 µg/mL (≈ 0.69 µM) in the assay with MRSA USA300 [1] and greater than 128 µg/mL in the assay on A. baumannii AB5075 (AB5075, read-out: A. baumannii AB5075 MIC).
In the case of `C=CCCSc1ccc(/C(C)=N/NC(=N)N)cc1` [Example compound of formula 70], the MIC in the assay on MRSA USA300 [1] (setting [3]) and in the assay with A. baumannii AB5075 (setting [4]) was 32 µg/mL in each case.
Consider `CCCCSc1ccc(/C(C)=N/NC(=N)N)cc1` [Example compound of formula 69], for which the results for the MIC in the assay on MRSA USA300 [1] (setting [3]) and in the assay on A. baumannii AB5075 (setting [4]) were 8 µg/mL and 16 µg/mL, respectively.
`CC(=O)O[C@H]1C[C@@]2(C)[C@@H](C[C@@H](O)[C@H]3[C@@]4(C)CC[C@@H](O)[C@@H](C)[C@@H]4CC[C@@]32C)/C1=C(\CCC=C(C)C)C(=O)O` [fusidic acid, reference compound]: in the assay on MRSA strain USA300, the “bacterial counts from skin lesions compared with PJ group” value is given as “significantly lower than the counts obtained from the PJ group”; the “appearance of skin lesions (visual comparison)” value was “showed signs of lesion healing and better recovery”.
`CCCCCCSc1ccc(/C(C)=N/NC(=N)N)cc1` [Example compound of formula 74, 2-(1-(4-(Hexylthio)phenyl)ethylidene)hydrazine-1-carboximidamide]: the MIC in the assay on MRSA USA300 [1] (setting [3]) is 0.5 µg/mL; in the assay with A. baumannii AB5075 (setting [4]), 4 µg/mL. Also, the “potency against S. aureus USA300 relative to example compound of formula 75” value in the assay with MRSA USA300 [1] (setting [6]) is reported as “maintained the same potency”. Also, the “potency against tested gram-negative pathogen (A. baumannii AB5075) relative to example compound of formula 75” value with A. baumannii AB5075 (setting [6]) was “four times less potent”.
